Assay results published in patent US9879023B2, “Therapeutic compounds” (Gilead Sciences, Inc., priority 2011, dated 2018).

Tested on: HIV-IIIb (MT-4 cells)
Test: Test A: Antiviral Assays in MT4 Cells
Assay type: cell-based
Conditions: Human immunodeficiency virus 1, IIIB, MT4, 120 h, MT-4 cells infected with HIV-IIIb (0.004 m.o.i.), 5 days incubation, CellTiter-Glo readout; read-out: EC50
Experimental: Test A: Antiviral Assays in MT4 Cells
For the antiviral assay utilizing MT-4 cells, 0.4 μL of […] test concentration of 3-fold serially diluted compound in DMSO was added to 40 μL of cell growth medium (RPMI 1640, 10% FBS, 1% penicilline/Streptomycine, 1% L-Glutamine, 1% HEPES) in each well of 384-well assay plates (10 concentrations) in quadruplicate.
1 mL aliquots of 2×10e6 MT-4 cells are pre-infected for 1 and 3 hrs respectively, @37° C. with 25 uL (MT4) or of either cell growth medium (mock-infected) or a fresh 1:250 dilution of an HIV-IIIb concentrated ABI stock (0.004 m.o.i. for MT4 cells). Infected and uninfected cells are diluted in cell growth medium and 35 uL of 2000 (for MT4) cells is added to each well of the assay plates.
Assay plates were then incubated in a 37° C. incubator. After 5 days of incubation, 25 μl of 2× concentrated CellTiter-Glo™ Reagent (catalog # G7573, Promega Biosciences, Inc., Madison, Wis.) was added to each well of the assay plate. Cell lysis was carried out by incubating at room temperature for 2-3 min and then chemiluminescence was read using the Envision reader (PerkinElmer). […]

Structure (SMILES)	EC50 [µM]
COc1nc2cc(C)c([C@H](OC(C)(C)C)C(=O)O)c(-c3ccc4c5c(ccnc35)CCO4)c2s1 (atropisomer, axis not shown) [Compound 66, (S)-2-tert-butoxy-2-((S)-7-(2,3-dihydropyrano[4,3,2-de]quinolin-7-yl)-2-methoxy-5-methylbenzo[d]thiazol-6-yl)acetic acid]	0.0225
Cc1cc2nc(CC(C)C)sc2c(-c2ccccc2)c1[C@H](OC(C)(C)C)C(=O)O [Compound 8K, (S)-2-tert-butoxy-2-(2-isobutyl-5-methyl-7-phenylbenzo[d]thiazol-6-yl)acetic acid]	0.641
Cc1cc2nc(C3CCC3)sc2c(-c2ccc3c4c(ccnc24)CCO3)c1[C@H](OC(C)(C)C)C(=O)O (atropisomer, axis not shown) [Compound 82, (S)-2-tert-butoxy-2-((S)-2-cyclobutyl-7-(2,3-dihydropyrano[4,3,2-de]quinolin-7-yl)-5-methylbenzo[d]thiazol-6-yl)acetic acid]	0.0402
Cc1cc2c(sc(=O)n2Cc2cccc(C(F)(F)F)c2)c(-c2ccc3c4c(ccnc24)CCO3)c1[C@H](OC(C)(C)C)C(=O)O (atropisomer, axis not shown) [Compound 73, (S)-2-tert-butoxy-2-((S)-7-(2,3-dihydropyrano[4,3,2-de]quinolin-7-yl)-5-methyl-2-oxo-3-(3-(trifluoromethyl)benzyl)-2,3-dihydrobenzo[d]thiazol-6-yl)acetic acid]	0.0522
Cc1cc2nc(N(C)C)sc2c(-c2ccc(Cl)cc2)c1[C@H](OC(C)(C)C)C(=O)O [Compound 12]	0.113
Cc1cc2nc(N(C)Cc3ccccc3)sc2c(-c2ccc3c4c(ccnc24)CCO3)c1[C@H](OC(C)(C)C)C(=O)O [Compound 63, (2S)-2-(2-(benzyl(methyl)amino)-7-(2,3-dihydropyrano[4,3,2-de]quinolin-7-yl)-5-methylbenzo[d]thiazol-6-yl)-2-tert-butoxyacetic acid]	0.351
Cc1cc2nc(C(=O)NCCc3ccccc3)sc2c(-c2ccc3c4c(ccnc24)CCO3)c1[C@H](OC(C)(C)C)C(=O)O (atropisomer, axis not shown) [Compound 98, (S)-2-tert-butoxy-2-((S)-7-(2,3-dihydropyrano[4,3,2-de]quinolin-7-yl)-5-methyl-2-(phenethylcarbamoyl)benzo[d]thiazol-6-yl)acetic acid]	2.51
Cc1cc2nc(C3CC3)sc2c(-c2ccc(Cl)cc2)c1[C@H](OC(C)(C)C)C(=O)O [Compound 10]	0.121
Cc1cc2c(sc(=O)n2Cc2ccccc2)c(-c2ccc3c4c(ccnc24)CCO3)c1[C@H](OC(C)(C)C)C(=O)O (atropisomer, axis not shown) [Compound 72, (S)-2-((S)-3-benzyl-7-(2,3-dihydropyrano[4,3,2-de]quinolin-7-yl)-5-methyl-2-oxo-2,3-dihydrobenzo[d]thiazol-6-yl)-2-tert-butoxyacetic acid]	0.0298
Cc1cc2nc(C3CC3)sc2c(-c2ccc3c4c(ccnc24)CCO3)c1[C@H](OC(C)(C)C)C(=O)O [Compound 22, (S)-2-tert-butoxy-2-((R)-2-cyclopropyl-7-(2,3-dihydropyrano[4,3,2-de]quinolin-7-yl)-5-methylbenzo[d]thiazol-6-yl)acetic acid]	0.17
Cc1cc2nc(C(C)C)sc2c(-c2ccc3c4c(ccnc24)CCO3)c1[C@H](OC(C)(C)C)C(=O)O (atropisomer, axis not shown) [Compound 88, (S)-2-tert-butoxy-2-((S)-7-(2,3-dihydropyrano[4,3,2-de]quinolin-7-yl)-2-isopropyl-5-methylbenzo[d]thiazol-6-yl)acetic acid]	0.0133
Cc1cc2ncsc2c(-c2ccc(Cl)cc2)c1[C@H](OC(C)(C)C)C(=O)O [Compound 5L, (S)-2-tert-butoxy-2-(7-(4-chlorophenyl)-5-methylbenzo[d]thiazol-6-yl)acetic acid]	2.95
Cc1cc2nc(C(=O)C3=CCC3)sc2c(-c2ccc(Cl)cc2)c1[C@H](OC(C)(C)C)C(=O)O [Compound 14b]	0.48
CCc1nc2cc(C)c([C@H](OC(C)(C)C)C(=O)O)c(-c3ccc(Cl)cc3)c2s1 [Compound 9]	0.118
Cc1cc2nc(N(C)C)sc2c(-c2ccc3c4c(ccnc24)CCO3)c1[C@H](OC(C)(C)C)C(=O)O [Compound 42, (S)-2-tert-butoxy-2-((S)-7-(2,3-dihydropyrano[4,3,2-de]quinolin-7-yl)-2-(dimethylamino)-5-methylbenzo[d]thiazol-6-yl)acetic acid]	0.0103

Same assay, conditions: MT-4 cells infected with HIV-IIIb (0.004 m.o.i.), 5 days incubation, CellTiter-Glo readout; read-out: EC50

Structure (SMILES)	EC50 [µM]
Cc1cc2nc(CC(C)C)sc2c(-c2ccc3c4c(ccnc24)CCO3)c1[C@H](OC(C)(C)C)C(=O)O (atropisomer, axis not shown) [Compound 84, (S)-2-tert-butoxy-2-((R)-7-(2,3-dihydropyrano[4,3,2-de]quinolin-7-yl)-2-isobutyl-5-methylbenzo[d]thiazol-6-yl)acetic acid]	14.9
Cc1cc2nc(N(C)CCN(C)C)sc2c(-c2ccc3c4c(ccnc24)CCO3)c1[C@H](OC(C)(C)C)C(=O)O (atropisomer, axis not shown) [Compound 62, (S)-2-tert-butoxy-2-((R)-7-(2,3-dihydropyrano[4,3,2-de]quinolin-7-yl)-2-((2-(dimethylamino)ethyl)(methyl)amino)-5-methylbenzo[d]thiazol-6-yl)acetic acid]	4.88
Cc1cc2nc(CC(C)C)sc2c(-c2ccc3c4c(ccnc24)CCO3)c1[C@H](OC(C)(C)C)C(=O)O (atropisomer, axis not shown) [Compound 83, (S)-2-tert-butoxy-2-((S)-7-(2,3-dihydropyrano[4,3,2-de]quinolin-7-yl)-2-isobutyl-5-methylbenzo[d]thiazol-6-yl)acetic acid]	0.0932
Cc1cc2nc(N3CCC3)sc2c(-c2ccc3c4c(ccnc24)CCO3)c1[C@H](OC(C)(C)C)C(=O)O [Compound 36, (S)-2-((R)-2-(azetidin-1-yl)-7-(2,3-dihydropyrano[4,3,2-de]quinolin-7-yl)-5-methylbenzo[d]thiazol-6-yl)-2-tert-butoxyacetic acid]	6.21
Cc1cc2nc(N3CCC3)sc2c(-c2ccc3c4c(ccnc24)CCO3)c1[C@H](OC(C)(C)C)C(=O)O [Compound 35, (S)-2-((S)-2-(azetidin-1-yl)-7-(2,3-dihydropyrano[4,3,2-de]quinolin-7-yl)-5-methylbenzo[d]thiazol-6-yl)-2-tert-butoxyacetic acid]	0.0127
Cc1cc2nc(C3CC3)sc2c(-c2ccc3c(c2Cl)NCCO3)c1[C@H](OC(C)(C)C)C(=O)O (atropisomer, axis not shown) [Compound 86, (S)-2-tert-butoxy-2-((S)-7-(5-chloro-3,4-dihydro-2H-benzo[b][1,4]oxazin-6-yl)-2-cyclopropyl-5-methylbenzo[d]thiazol-6-yl)acetic acid]	0.0617
Cc1cc2nc(N(C)C(C)C)sc2c(-c2ccc3c4c(ccnc24)CCO3)c1[C@H](OC(C)(C)C)C(=O)O (atropisomer, axis not shown) [Compound 47, (S)-2-tert-butoxy-2-((R)-7-(2,3-dihydropyrano[4,3,2-de]quinolin-7-yl)-2-(isopropyl(methyl)amino)-5-methylbenzo[d]thiazol-6-yl)acetic acid]	26.5
